Results as given in PubChem BioAssay (NCI).
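Values below derive from 48-hour exposures of cells grown in 96-well plates, with endpoints linearly interpolated between the two concentrations bracketing the appropriate inhibition level. GI50 = concentration required for 50% inhibition of growth. At the TGI there is no net growth.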

Legend:
Experiment in all cases: NCI anticancer screen, dose series, 48 h
[1] = tested on: SK-MEL-28 melanoma
[2] = tested on: MCF7 breast
[3] = tested on: OVCAR-3 ovarian
[4] = tested on: SF-268 CNS
[5] = tested on: NCI-H460 lung
[6] = tested on: SK-MEL-2 melanoma
[7] = tested on: SF-295 CNS
[8] = tested on: HT29 colon
[9] = tested on: TK-10 renal
[10] = tested on: SR leukemia
[11] = tested on: NCI-H522 lung
[12] = tested on: HS 578T breast
[13] = tested on: COLO 205 colon
[14] = tested on: HCC-2998 colon
[15] = tested on: MOLT-4 leukemia
[16] = tested on: 786-0 renal
[17] = tested on: A498 renal
[18] = tested on: HCT-15 colon
[19] = tested on: UACC-257 melanoma
[20] = tested on: ACHN renal
[21] = tested on: T-47D breast
[22] = tested on: NCI-H226 lung
[23] = tested on: RPMI-8226 leukemia
[24] = tested on: LOX IMVI melanoma
[25] = tested on: M14 melanoma
[26] = tested on: EKVX NSCLC
[27] = tested on: SN12C renal
[28] = tested on: UACC-62 melanoma
[29] = tested on: U251 CNS
[30] = tested on: IGROV1 ovarian
[31] = tested on: MDA-MB-435
[32] = tested on: HOP-62 NSCLC
[33] = tested on: UO-31 renal
[34] = tested on: PC-3 prostate
[35] = tested on: A549 NSCLC
[36] = tested on: RXF 393 renal
[37] = tested on: CAKI-1 renal
[38] = tested on: SK-MEL-5 melanoma
[39] = tested on: HCT-116 colon
[40] = tested on: MALME-3M melanoma
[41] = tested on: OVCAR-5 ovarian
[42] = tested on: DU-145 prostate
[43] = tested on: BT-549 breast
[44] = tested on: CCRF-CEM leukemia
[45] = tested on: OVCAR-8 ovarian
[46] = tested on: NCI-H23 lung
[47] = tested on: SNB-75 CNS
[48] = tested on: NCI/ADR-RES ovarian
[49] = tested on: KM12 colon
[50] = tested on: HL-60(TB) leukemia
[51] = tested on: OVCAR-4 ovarian
[52] = tested on: SW-620 colon
[53] = tested on: MDA-MB-468 breast
[54] = tested on: K-562 leukemia
[55] = tested on: SNB-19 CNS
[56] = tested on: SF-539 CNS
[57] = tested on: MDA-MB-231 breast
[58] = tested on: HOP-92 NSCLC
[59] = tested on: SK-OV-3 ovarian

COC(=O)c1c(C(=O)OC)c2n(c1C)[C@@H]([C@@H](C)[C@H]1CC[C@H]3[C@@H]4CCC5=CC(=O)CC[C@]5(C)[C@H]4CC[C@]13C)SC2
GI50 [1]: 4.34 µM | TGI [1]: > 100 µM | GI50 [2]: 2600 nM | TGI [2]: > 100 µM | GI50 [3]: 5.08 µM | TGI [3]: > 100 µM | GI50 [4]: 6.58 µM | TGI [4]: > 100 µM | GI50 [5]: 5.25 µM | TGI [5]: > 100 µM | GI50 [6]: 4.02 µM | TGI [6]: > 100 µM | GI50 [7]: 2680 nM | TGI [7]: 27.9 µM | GI50 [8]: 3.75 µM | TGI [8]: > 100 µM | GI50 [9]: 6.34 µM | TGI [9]: > 100 µM | GI50 [10]: 3.5 µM | TGI [10]: > 100 µM | GI50 [11]: 2550 nM | TGI [11]: 53.8 µM | GI50 [12]: 8.22 µM | TGI [12]: > 100 µM | GI50 [13]: 4.94 µM | TGI [13]: > 100 µM | GI50 [14]: 6.47 µM | TGI [14]: > 100 µM | GI50 [15]: 2020 nM | TGI [15]: 6.34 µM | GI50 [16]: 11.3 µM | TGI [16]: > 100 µM | GI50 [17]: 17.1 µM | TGI [17]: > 100 µM | GI50 [18]: 3.69 µM | TGI [18]: > 100 µM | GI50 [19]: 3.22 µM | TGI [19]: > 100 µM | GI50 [20]: 3.36 µM | TGI [20]: > 100 µM | GI50 [21]: 2100 nM | TGI [21]: > 100 µM | GI50 [22]: 2580 nM | TGI [22]: 61.8 µM | GI50 [23]: 1560 nM | TGI [23]: > 100 µM | GI50 [24]: 3.86 µM | TGI [24]: > 100 µM | GI50 [25]: 4.81 µM | TGI [25]: > 100 µM | GI50 [26]: 2340 nM | TGI [26]: > 100 µM | GI50 [27]: 4.06 µM | TGI [27]: > 100 µM | GI50 [28]: 2210 nM | TGI [28]: > 100 µM | GI50 [29]: 4.56 µM | TGI [29]: > 100 µM | GI50 [30]: 18.7 µM | TGI [30]: > 100 µM | GI50 [31]: 3.25 µM | TGI [31]: > 100 µM | GI50 [32]: 24.3 µM | TGI [32]: > 100 µM | GI50 [33]: 2910 nM | TGI [33]: > 100 µM | GI50 [34]: 2310 nM | TGI [34]: > 100 µM | GI50 [35]: 4.29 µM | TGI [35]: > 100 µM | GI50 [36]: 8.82 µM | TGI [36]: 52.4 µM | GI50 [37]: 3.93 µM | TGI [37]: > 100 µM | GI50 [38]: 1530 nM | TGI [38]: 3.68 µM | GI50 [39]: 3000 nM | TGI [39]: > 100 µM | GI50 [40]: 4.44 µM | TGI [40]: 72.9 µM | GI50 [41]: 4.67 µM | TGI [41]: > 100 µM | GI50 [42]: 9.83 µM | TGI [42]: > 100 µM | GI50 [43]: 1800 nM | TGI [43]: 4.99 µM | GI50 [44]: 3.41 µM | TGI [44]: > 100 µM | GI50 [45]: 3.32 µM | TGI [45]: > 100 µM | GI50 [46]: 3.79 µM | TGI [46]: > 100 µM | GI50 [47]: 11.3 µM | TGI [47]: 49.7 µM | GI50 [48]: 3.13 µM | TGI [48]: > 100 µM | GI50 [49]: 4.17 µM | TGI [49]: > 100 µM | GI50 [50]: 2340 nM | TGI [50]: 14 µM | GI50 [51]: 3.05 µM | TGI [51]: > 100 µM | GI50 [52]: 7.25 µM | TGI [52]: > 100 µM | GI50 [53]: 1930 nM | TGI [53]: 16.6 µM | GI50 [54]: 908 nM | TGI [54]: > 100 µM | GI50 [55]: 8.15 µM | TGI [55]: > 100 µM | GI50 [56]: 7.07 µM | TGI [56]: 84.1 µM | GI50 [57]: 9.73 µM | TGI [57]: > 100 µM | GI50 [58]: 6.99 µM | TGI [58]: 54.4 µM | GI50 [59]: 29.3 µM | TGI [59]: > 100 µM
